Reference: ChEMBL document CHEMBL5365556 (ACS Med Chem Lett, 2023)

System: THP-1
Experiment: Cytotoxicity against human THP-1 cells assessed as reduction in cell viability measured after 24 hrs by Celltiter-Glo assay
Type: functional, cell-based
Details: THP-1, 24 h

## CCN(CC)C(=S)SSC(=S)N(CC)CC
  IC50: 7 µM
